Reference: patent US10350257B2, “Pharmaceutical composition containing complex extract of Crataegi fructus and Citri pericarpium as an active ingredient for treating or preventing obesity or lipid-related metabolic diseases” (NEUMED, priority 2012, dated 2019)
Marks after values point to notes of the source that are not given here.

What was measured:
[1] = tested on: diet-induced obesity (DIO) white rat models; assay: Blood triglyceride and total cholesterol in serum of high-fat diet obese animal models after 8 weeks; assay type: in vivo, Sprague-Dawley male white rats; details: serum after 8 weeks; high-fat diet rats; extracts 100 mg/kg, HCA 390 mg/kg oral twice a day
Description: (§1) Animal experiments were performed on Sprague-Dawley ([…] BIO Korea) male white rats weighing 80 to 100 g. 3. Selection of Experimental Groups • Normal group (AIN-93G, Normal diet+fed with secondary distilled water); • Control group (60% Kcal high-fat diet+fed with secondary distilled water); • Positive control group (60% Kcal high-fat diet+administered with 390 mg/kg of […] Fructus extract-administered group (high-fat diet+administered with 100 mg/kg of […] Fructus extract of Comparative Example 1); • Citri Pericarpium extract-administered group (high-fat diet+administered with 100 mg/kg of the Citri Pericarpium extract of Comparative Example 2); and • Complex extract-administered group (high-fat diet+administered with 100 mg/kg of the complex extract of Example 1 or 2). The temperature was 22±2° C., the relative humidity was 50±10%, and the dark-light cycle (light on at 07:00 light off at 19:00) was controlled with fluorescent lighting. […] Moreover, all the experimental groups were sacrificed after 8 weeks to collect blood samples, serums were separated from the blood samples, and the blood triglyceride (mg/dL) and the total cholesterol (mg/dL) were analyzed using a biochemical analyzer ([…], USA).

[2] = tested on: diet-induced obesity (DIO) white rat models; assay: Body weight gain in high-fat diet obese animal models (8 weeks); assay type: in vivo, Sprague-Dawley male white rats; details: oral twice a day for 8 weeks, extracts 100 mg/kg, HCA 390 mg/kg
Description: as §1

[3] = 1,500 mg HCA daily, 12-week clinical trial; cited from earlier work
[4] = about 3 g daily, after 3 months, clinical trials; cited from earlier work

Row | Compound | Total cholesterol [1] [mg/dL] | Total triglyceride [1] [mg/dL] | Body weight gain ([2]; 60% Kcal high-fat diet rats, mean±SD) [g] | Reduction in rate of body weight gain ([2]; vs high-fat diet control group) | Weight loss effect compared to the placebo group [3] | Average body weight lost [4] [kg] | Body fat reduced [4] [%]
1 | O=C(O)CC(O)(C(=O)O)C(O)C(=O)O (stereo not shown) [HCA, hydroxycitrate] | 59.8 ± 11.2 | 134.2 ± 21.3 | 333.2 ± 12.2 | 7.3* % | no weight loss effect | – | –
2 | conjugated linoleic acid | – | – | – | – | – | 2.5 | 15 to 20
